Results: patent US9180082B2, “Biotin-conjugated hexapeptide-2 derivative and use thereof” (INCOSPHARM CORPORATION, priority 2012, dated 2015)
Where a SMILES comes first, the peptide text is derived from it. [ ]: non-standard residue; d: D form. The star is where a group is joined. ξ: configuration not given here. Biotin = O=C1N[C@H]2[C@H](CS[C@H]2CCCCC(=O)*)N1; ξW = NC(Cc1c[nH]c2ccccc12)C(=O)O; ξH = NC(Cc1c[nH]cn1)C(=O)O; ξF = NC(Cc1ccccc1)C(=O)O; ξK = NCCCCC(N)C(=O)O; ξA = CC(N)C(=O)O

How the values were obtained:
[1] = tested on: type 1 collagen biosynthesis in fibroblasts; test: Type 1 collagen biosynthesis-promoting ability, ELISA of fibroblast culture supernatants; format: cell-based; settings: supernatants of human dermal fibroblasts; dilutions of 200 uM, 20 uM and 2 uM, each 100 ul added to 100 ul medium; incubation 48 hours; FIG. 2
Protocol: The type 1 collagen produced was measured by ELISA assay to examine the effect of promoting collagen biosynthesis, and a control group with no sample added was considered as 100% to calculate the relative type 1 collagen production ability.
Thereafter, fibroblast culture supernatants described in Example 2 were treated to the 96-well plate coated with type 1 collagen antibodies, and reacted at room temperature for 2 hours. […] Reaction was stopped using 2 N hydrochloric acid, and absorbance was measured at 450 nm.

[2] = tested on: Human normal fibroblasts (Human Dermal Fibroblast neonatal); test: Cytotoxicity test by MTT assay; format: cell-based; settings: dilutions of 200 uM, 20 uM and 2 uM, each 100 ul added to 100 ul medium, incubation 48 hours, FIG. 1
Protocol: In order to examine cytotoxicity of the biotin-conjugated hexapeptide-2 peptide synthesized in Example 1, the following experiment was performed. Cytotoxicity was examined by MTT assay, and a control group with no sample added was considered as 100% to calculate relative cytotoxicity. The detailed experimental method is as follows. Human normal fibroblasts (Human Dermal Fibroblast neonatal) were seeded in a 96-well plate for cell culture at a density of 3,000 cells per well, and cultured in 10% FBS (Fetal bovine serum)-containing DMEM (Dulbecco's Modified Eagle Media, Gibco BRL) in a 37° C., 5% CO2 incubator for 24 hours. Each test material was dissolved in water at a concentration of 10 mM to prepare concentrates, and the concentrates were diluted with 0.5% FBS-containing DMEM at a concentration of 200 uM, 20 uM, and 2 uM. Then, each 100 ul of the diluted solutions was added to each well previously containing 100 ul of the medium, followed by incubation for 48 hours. After completing the cultivation, the supernatants were used to determine the amount of type 1 collagen produced (Example 3), and the cells were used to determine cytotoxicity. […] Thereafter, the supernatant was carefully removed, and MTT formazan precipitates in the cells were dissolved in 100 ul of DMSO to determine absorbance at OD570 using an ELISA reader.

CC(NC(=O)C(Cc1c[nH]c2ccccc12)NC(=O)C(Cc1c[nH]cn1)NC(=O)CCCC[C@@H]1SC[C@@H]2NC(=O)N[C@@H]21)C(=O)NC(Cc1c[nH]c2ccccc12)C(=O)NC(Cc1ccccc1)C(=O)NC(CCCCN)C(N)=O (stereo partly drawn) [biotin-conjugated hexapeptide-2] (Biotin-[ξH][ξW][ξA][ξW][ξF][ξK]-NH2)
type 1 collagen biosynthesis (ELISA, relative to control group with no sample added = 100%) [1]: significant increase

O=C(O)CCCC[C@@H]1SC[C@@H]2NC(=O)N[C@@H]21 [biotin]
type 1 collagen biosynthesis (ELISA, relative to control group with no sample added = 100%) [1]: no increase

C[C@H](NC(=O)[C@@H](Cc1c[nH]c2ccccc12)NC(=O)[C@@H](N)Cc1c[nH]cn1)C(=O)N[C@@H](Cc1c[nH]c2ccccc12)C(=O)N[C@H](Cc1ccccc1)C(=O)N[C@@H](CCCCN)C(N)=O [hexapeptide-2, His-D-Trp-Ala-Trp-D-Phe-Lys-NH2] (H-H[dW]AW[dF]K-NH2)
cytotoxicity (MTT assay, relative to control group with no sample added = 100%) [2]: no cytotoxicity
